Data: PubChem BioAssay (NCI)
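Values below derive from 48-hour exposures of cells grown in 96-well plates, with endpoints linearly interpolated between the two concentrations bracketing the appropriate inhibition level. TGI: concentration producing complete growth inhibition.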 Where a SMILES comes first, the peptide text is derived from it. [ ]: non-standard residue; d: D form. The star is where a group is joined. ξ: configuration not given here. ξD = NC(CC(=O)O)C(=O)O; Ac3c = NC1(C(=O)O)CC1; Boc = CC(C)(C)OC(=O)*; OBn = c1ccc(CO*)cc1

Experiments:
Experiment in all cases: growth of human tumour cells (NCI), 48 h
786-0 renal = test system: 786-0 renal
COLO 205 colon = test system: COLO 205 colon
DU-145 prostate = test system: DU-145 prostate
HOP-92 NSCLC = test system: HOP-92 NSCLC
HT29 colon = test system: HT29 colon
K-562 leukemia = test system: K-562 leukemia
MDA-MB-231 breast = test system: MDA-MB-231 breast
NCI-H226 lung = test system: NCI-H226 lung
NCI-H460 lung = test system: NCI-H460 lung
OVCAR-5 ovarian = test system: OVCAR-5 ovarian

Row | SMILES | TGI (786-0 renal) | TGI (COLO 205 colon) | TGI (DU-145 prostate) | TGI (HOP-92 NSCLC) | TGI (HT29 colon) | TGI (K-562 leukemia) | TGI (MDA-MB-231 breast) | TGI (NCI-H226 lung) | TGI (NCI-H460 lung) | TGI (OVCAR-5 ovarian)
1 | Cc1cc(Nc2ccc(N=Nc3ccc(O)c4ncccc34)cc2)nc(C)n1 | 54.2 µM | 40.4 µM | 69.7 µM | 46.7 µM | > 75.2 µM | 39.1 µM | 73.7 µM | 44.1 µM | 38 µM | > 87.9 µM
2 | NC(c1ccccc1)(C(F)(F)F)P1(=O)OC(=O)c2ccccc2O1 (stereo not given) | > 100 µM | > 100 µM | > 100 µM | 85 µM | > 100 µM | > 100 µM | > 100 µM | > 100 µM | > 100 µM | > 100 µM
3 | CC(NC1=NCCO1)c1cccc([N+](=O)[O-])c1 (stereo not given) | > 100 µM | > 100 µM | > 100 µM | > 100 µM | > 100 µM | > 100 µM | > 100 µM | > 100 µM | > 100 µM | > 100 µM
4 | COc1ccc(/C=C(\C(=C/c2ccc(OC)cc2)[N+](=O)[O-])[N+](=O)[O-])cc1 | 4.96 µM | 21.6 µM | 24.6 µM | 10 µM | 11.1 µM | > 34.5 µM | 5.56 µM | 33 µM | 12.2 µM | 35.4 µM
5 | COC(=O)c1ccc(CCc2cc(O)ccc2O)cc1 | 18.4 µM | 54.5 µM | > 100 µM | 26.4 µM | > 79.9 µM | > 31.6 µM | 29.9 µM | 38.6 µM | > 68.4 µM | 50.7 µM
6 | Cc1cc(=O)n2nc(CSc3nnc(N)s3)sc2n1 | > 100 µM | > 100 µM | > 100 µM | > 100 µM | > 100 µM | > 100 µM | > 100 µM | > 100 µM | > 100 µM | > 100 µM
7 | O=c1[nH]c(=O)n(COCc2ccccc2)c2ccc(Br)cc12 | > 100 µM | > 100 µM | > 100 µM | > 100 µM | > 100 µM | > 100 µM | > 100 µM | > 100 µM | > 100 µM | > 100 µM
8 | NCCNCCCCCCNC(=O)c1cccc2cc3ccccc3nc12 | 2.88 µM | 13.2 µM | 2.92 µM | 9.28 µM | 3.77 µM | 6.77 µM | 7.13 µM | 5.02 µM | 2.98 µM | 14 µM
9 | COC(=O)C1(NC(=O)C(CC(=O)OCc2ccccc2)NC(=O)OC(C)(C)C)CC1 (stereo not given) (Boc-[ξD](OBn)-[Ac3c]-OMe) | > 100 µM | > 100 µM | > 100 µM | > 100 µM | > 100 µM | > 100 µM | > 100 µM | > 100 µM | > 100 µM | > 100 µM
10 | S=C1C(=Nc2ccccc2)N(c2ccccc2)/C(=N\c2ccccn2)N1c1ccccc1 | 27.6 µM | 22.7 µM | 35 µM | 25.7 µM | 24.8 µM | > 100 µM | 31.6 µM | 36.8 µM | 27 µM | 29.9 µM
11 | O=C1CCC2(CC1CCSc1ccccc1)OCCO2 (stereo not given) | > 100 µM | > 100 µM | > 100 µM | > 100 µM | > 100 µM | > 100 µM | > 100 µM | > 100 µM | > 100 µM | > 100 µM
12 | CCOC(=O)C1=C(C)C(C(=O)OC)/C(=C/c2cccc3cccnc23)C1=O (stereo not given) | > 10 µM | > 10 µM | > 10 µM | > 10 µM | > 10 µM | > 10 µM | > 10 µM | > 10 µM | > 10 µM | > 10 µM
13 | Cc1cc(NS(=O)(=O)c2ccc(NC(=O)c3cccc4c(NNc5ccc(S(=O)(=O)N=C(N)N)cc5)c5ccccc5nc34)cc2)no1 | > 100 µM | > 100 µM | > 100 µM | 92.7 µM | 92.6 µM | > 100 µM | > 100 µM | 98.5 µM | > 100 µM | > 100 µM
14 | N#CC(C#N)=Cc1c(O)ccc2ccccc12 | 33 µM | 44.5 µM | 27.8 µM | 23.4 µM | 41.1 µM | 24.6 µM | 30.4 µM | 50 µM | 36.7 µM | 31.7 µM
15 | O=c1[nH]c2cc3cccnc3c(Cl)c2nc1C(F)(F)F | > 100 µM | > 100 µM | > 100 µM | 60.5 µM | > 100 µM | > 100 µM | > 100 µM | > 100 µM | > 100 µM | > 100 µM
16 | CN(C)CCOC(=O)c1ccc(N)cc1 | > 100 µM | > 100 µM | > 100 µM | 49.5 µM | > 100 µM | > 100 µM | 41.1 µM | 67.4 µM | > 100 µM | > 100 µM
